Laboratory results taken from patent US20020137929A1, “1 - (3-heterocyclylphenyl) isothiourea, -isourea, -guanidine and -amidine herbicidal agents” (Intellectual Property Department, BASF Aktiengesellschaft, priority 1998, published 2002).

Experiments:
AMBEL (Ragweed, Common) = assay: Preemergence herbicidal evaluation; format: in vivo, Ambrosia artemisifolia; conditions: rated 4-5 weeks after treatment
How it was run: (§1)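 Visual 0-9 rating vs control (stand, vigor, malformation, size, chlorosis, overall appearance), scored 4-5 wk after spraying. Seeded soil cups were treated preemergence with compound in aqueous acetone, ~0.0156-0.500 kg/ha equivalent.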

[1] = tested on: GLXMAW (Soybean, Williams); assay: Postemergence herbicidal evaluation; format: in vivo, Glycine max, (L.) Merr. cv Williams; conditions: postemergence
How it was run: (§2)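 Each compound, dispersed in an acetone/water mix (50/50) carrying 0.5% TWEEN 20, is nozzle-sprayed at 40 psi on approximately two-week-old seedlings at about 0.0156–0.500 kg/ha. Plants are assessed 4–5 weeks afterward on a 0–9 scale relative to control; duplicate tests are averaged.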

CASOB (Sicklepod) = assay: Preemergence herbicidal evaluation; format: in vivo, Cassia obtusifolia; conditions: rated 4-5 weeks after treatment
How it was run: as §1

CYPSE (Flatsedge) = assay: Preemergence weed control under flooded paddy conditions; format: in vivo, Cyperus serotinus; conditions: rated 3-4 weeks after treatment
How it was run: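 Silt loam, seeds in top 0.5 cm; flood held 1.5-3 cm; test cpd as acetone/water 50/50 into flood water, ~0.0313-0.500 kg/ha a.i.; greenhouse 3-4 wk; visual 0-9 score vs control.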

ZEAMX (Corn, Field) = assay: Postemergence herbicidal evaluation; format: in vivo, Zea mays; conditions: postemergence
How it was run: as §2

ECHCG (Barnyardgrass) = assay: Preemergence herbicidal evaluation; format: in vivo, Echinochloa crus-galli; conditions: rated 4-5 weeks after treatment
How it was run: as §1

[2] = tested on: ECHORC (Watergrass (Calif.)); assay: Preemergence weed control under flooded paddy conditions; format: in vivo, Echinochloa oryzoides; conditions: rated 3-4 weeks after treatment
How it was run: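 Herbicidal effect is scored visually on a 0-9 scale against an untreated control, three to four weeks after compounds are pipetted into the flood water (1.5 to 3 cm deep) over seeds planted in silt loam at 0.5 cm depth. Rates: about 0.0313 to 0.500 kg/ha.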

[3] = tested on: IPOHE (Morningglory, Ivyleaf); assay: Postemergence herbicidal evaluation; format: in vivo, Ipomoea hederacea; conditions: postemergence
How it was run: as §2

SETVI (Foxtail, Green) = assay: Postemergence herbicidal evaluation; format: in vivo, Setaria viridis; conditions: postemergence
How it was run: as §2

ABUTH (Velvetleaf) [4] = assay: Postemergence herbicidal evaluation; format: in vivo, Abutilon theophrasti; conditions: postemergence
How it was run: as §2

[5] = tested on: IPOHE (Morningglory, Ivyleaf); assay: Preemergence herbicidal evaluation; format: in vivo, Ipomoea hederacea; conditions: rated 4-5 weeks after treatment
How it was run: as §1

ABUTH (Velvetleaf) [6] = assay: Preemergence herbicidal evaluation; format: in vivo, Abutilon theophrasti; conditions: rated 4-5 weeks after treatment
How it was run: as §1

Compound: CCCCOC(=O)CN1C(=O)CSC1=Nc1cc(-n2c(=O)cc(C(F)(F)F)n(C)c2=O)c(F)cc1Cl [Compound 111]
- Preemergence herbicidal rating AMBEL (AMBEL (Ragweed, Common); rate 0.0156 kg/ha): 0.0
- Preemergence herbicidal rating AMBEL (AMBEL (Ragweed, Common); rate 0.0313 kg/ha): 0.0
- Preemergence herbicidal rating AMBEL (AMBEL (Ragweed, Common); rate 0.0625 kg/ha): 0.0
- Preemergence herbicidal rating AMBEL (AMBEL (Ragweed, Common); rate 0.1250 kg/ha): 6.0
- Preemergence herbicidal rating AMBEL (AMBEL (Ragweed, Common); rate 0.2500 kg/ha): 7.0
- herbicidal rating GLXMAW ([1]; rate 0.0158 kg/ha): 6.0
- herbicidal rating GLXMAW ([1]; rate 0.0315 kg/ha): 6.0
- herbicidal rating GLXMAW ([1]; rate 0.0630 kg/ha): 6.0
- Preemergence herbicidal rating CASOB (CASOB (Sicklepod); rate 0.0156 kg/ha): 0.0
- Preemergence herbicidal rating CASOB (CASOB (Sicklepod); rate 0.0313 kg/ha): 0.0
- Preemergence herbicidal rating CASOB (CASOB (Sicklepod); rate 0.0625 kg/ha): 1.0
- Preemergence herbicidal rating CASOB (CASOB (Sicklepod); rate 0.1250 kg/ha): 1.0
- Preemergence herbicidal rating CASOB (CASOB (Sicklepod); rate 0.2500 kg/ha): 9.0
- CYPSE herbicidal effect rating (CYPSE (Flatsedge); 0.0625 kg/ha): 4.0
- CYPSE herbicidal effect rating (CYPSE (Flatsedge); 0.1250 kg/ha): 9.0
- CYPSE herbicidal effect rating (CYPSE (Flatsedge); 0.2500 kg/ha): 9.0
- herbicidal rating ZEAMX (ZEAMX (Corn, Field); rate 0.0158 kg/ha): 6.5
- herbicidal rating ZEAMX (ZEAMX (Corn, Field); rate 0.0315 kg/ha): 6.5
- herbicidal rating ZEAMX (ZEAMX (Corn, Field); rate 0.0630 kg/ha): 7.0
- Preemergence herbicidal rating ECHCG (ECHCG (Barnyardgrass); rate 0.0156 kg/ha): 0.0
- Preemergence herbicidal rating ECHCG (ECHCG (Barnyardgrass); rate 0.0313 kg/ha): 0.0
- Preemergence herbicidal rating ECHCG (ECHCG (Barnyardgrass); rate 0.0625 kg/ha): 0.0
- Preemergence herbicidal rating ECHCG (ECHCG (Barnyardgrass); rate 0.1250 kg/ha): 0.0
- Preemergence herbicidal rating ECHCG (ECHCG (Barnyardgrass); rate 0.2500 kg/ha): 4.0
- ECHORC herbicidal effect rating ([2]; 0.0313 kg/ha): 0.0
- ECHORC herbicidal effect rating ([2]; 0.0625 kg/ha): 3.0
- ECHORC herbicidal effect rating ([2]; 0.1250 kg/ha): 6.0
- ECHORC herbicidal effect rating ([2]; 0.2500 kg/ha): 7.0
- herbicidal rating IPOHE ([3]; rate 0.0158 kg/ha): 4.0
- herbicidal rating IPOHE ([3]; rate 0.0315 kg/ha): 9.0
- herbicidal rating IPOHE ([3]; rate 0.0630 kg/ha): 9.0
- herbicidal rating SETVI (SETVI (Foxtail, Green); rate 0.0158 kg/ha): 1.0
- herbicidal rating SETVI (SETVI (Foxtail, Green); rate 0.0315 kg/ha): 9.0
- herbicidal rating SETVI (SETVI (Foxtail, Green); rate 0.0630 kg/ha): 9.0
- herbicidal rating ABUTH (ABUTH (Velvetleaf) [4]; rate 0.0158 kg/ha): 7.0
- herbicidal rating ABUTH (ABUTH (Velvetleaf) [4]; rate 0.0315 kg/ha): 9.0
- herbicidal rating ABUTH (ABUTH (Velvetleaf) [4]; rate 0.0630 kg/ha): 9.0
- Preemergence herbicidal rating IPOHE ([5]; rate 0.0156 kg/ha): 0.0
- Preemergence herbicidal rating IPOHE ([5]; rate 0.0313 kg/ha): 0.0
- Preemergence herbicidal rating IPOHE ([5]; rate 0.0625 kg/ha): 0.0
- Preemergence herbicidal rating IPOHE ([5]; rate 0.1250 kg/ha): 9.0
- Preemergence herbicidal rating IPOHE ([5]; rate 0.2500 kg/ha): 7.0
- Preemergence herbicidal rating ABUTH (ABUTH (Velvetleaf) [6]; rate 0.0156 kg/ha): 1.0
- Preemergence herbicidal rating ABUTH (ABUTH (Velvetleaf) [6]; rate 0.0313 kg/ha): 0.0
- Preemergence herbicidal rating ABUTH (ABUTH (Velvetleaf) [6]; rate 0.0625 kg/ha): 2.0
- Preemergence herbicidal rating ABUTH (ABUTH (Velvetleaf) [6]; rate 0.1250 kg/ha): 9.0
- Preemergence herbicidal rating ABUTH (ABUTH (Velvetleaf) [6]; rate 0.2500 kg/ha): 9.0

Compound: CCOC(=O)CN1C(=O)C(C(=O)OCC)SC1=Nc1cc(-n2c(=O)cc(C(F)(F)F)n(C)c2=O)c(F)cc1Cl (stereo not drawn) [Compound 127, 5-Carboxy-2-{{2-chloro-5-[3,6-dihydro-3-methyl-2,6-dioxo-4-(trifluoromethyl)-1(2H)-pyrimidinyl]-4-fluorophenyl}imino}-4-oxo-3-thiazolidineacetic acid, diethyl ester]
- Preemergence herbicidal rating AMBEL (AMBEL (Ragweed, Common); rate 0.0313 kg/ha): 0.0
- Preemergence herbicidal rating AMBEL (AMBEL (Ragweed, Common); rate 0.0625 kg/ha): 0.0
- Preemergence herbicidal rating AMBEL (AMBEL (Ragweed, Common); rate 0.2500 kg/ha): 5.0
- Preemergence herbicidal rating AMBEL (AMBEL (Ragweed, Common); rate 0.5000 kg/ha): 9.0
- herbicidal rating GLXMAW ([1]; rate 0.0156 kg/ha): 5.0
- herbicidal rating GLXMAW ([1]; rate 0.0313 kg/ha): 5.5
- herbicidal rating GLXMAW ([1]; rate 0.0625 kg/ha): 7.5
- herbicidal rating GLXMAW ([1]; rate 0.1250 kg/ha): 9.0
- Preemergence herbicidal rating CASOB (CASOB (Sicklepod); rate 0.0313 kg/ha): 0.0
- Preemergence herbicidal rating CASOB (CASOB (Sicklepod); rate 0.0625 kg/ha): 0.0
- Preemergence herbicidal rating CASOB (CASOB (Sicklepod); rate 0.1250 kg/ha): 0.0
- Preemergence herbicidal rating CASOB (CASOB (Sicklepod); rate 0.2500 kg/ha): 2.0
- Preemergence herbicidal rating CASOB (CASOB (Sicklepod); rate 0.5000 kg/ha): 6.0
- herbicidal effect rating, CYPSE (CYPSE (Flatsedge); 0.0313 kg/ha): 0.0
- herbicidal effect rating, CYPSE (CYPSE (Flatsedge); 0.0625 kg/ha): 0.0
- herbicidal effect rating, CYPSE (CYPSE (Flatsedge); 0.1250 kg/ha): 0.0
- herbicidal effect rating, CYPSE (CYPSE (Flatsedge); 0.2500 kg/ha): 0.0
- herbicidal rating ZEAMX (ZEAMX (Corn, Field); rate 0.0156 kg/ha): 4.5
- herbicidal rating ZEAMX (ZEAMX (Corn, Field); rate 0.0313 kg/ha): 4.5
- herbicidal rating ZEAMX (ZEAMX (Corn, Field); rate 0.0625 kg/ha): 7.0
- herbicidal rating ZEAMX (ZEAMX (Corn, Field); rate 0.1250 kg/ha): 8.0
- Preemergence herbicidal rating ECHCG (ECHCG (Barnyardgrass); rate 0.0313 kg/ha): 0.0
- Preemergence herbicidal rating ECHCG (ECHCG (Barnyardgrass); rate 0.0625 kg/ha): 0.0
- Preemergence herbicidal rating ECHCG (ECHCG (Barnyardgrass); rate 0.1250 kg/ha): 0.0
- Preemergence herbicidal rating ECHCG (ECHCG (Barnyardgrass); rate 0.2500 kg/ha): 0.0
- Preemergence herbicidal rating ECHCG (ECHCG (Barnyardgrass); rate 0.5000 kg/ha): 0.0
- herbicidal effect rating, ECHORC ([2]; 0.0313 kg/ha): 4.0
- herbicidal effect rating, ECHORC ([2]; 0.0625 kg/ha): 7.0
- herbicidal effect rating, ECHORC ([2]; 0.1250 kg/ha): 9.0
- herbicidal effect rating, ECHORC ([2]; 0.2500 kg/ha): 9.0
- herbicidal rating IPOHE ([3]; rate 0.0156 kg/ha): 9.0
- herbicidal rating IPOHE ([3]; rate 0.0313 kg/ha): 9.0
- herbicidal rating IPOHE ([3]; rate 0.0625 kg/ha): 9.0
- herbicidal rating IPOHE ([3]; rate 0.1250 kg/ha): 9.0
- herbicidal rating SETVI (SETVI (Foxtail, Green); rate 0.0156 kg/ha): 0.0
- herbicidal rating SETVI (SETVI (Foxtail, Green); rate 0.0313 kg/ha): 1.0
- herbicidal rating SETVI (SETVI (Foxtail, Green); rate 0.0625 kg/ha): 7.0
- herbicidal rating SETVI (SETVI (Foxtail, Green); rate 0.1250 kg/ha): 9.0
- herbicidal rating ABUTH (ABUTH (Velvetleaf) [4]; rate 0.0156 kg/ha): 9.0
- herbicidal rating ABUTH (ABUTH (Velvetleaf) [4]; rate 0.0313 kg/ha): 9.0
- herbicidal rating ABUTH (ABUTH (Velvetleaf) [4]; rate 0.0625 kg/ha): 9.0
- herbicidal rating ABUTH (ABUTH (Velvetleaf) [4]; rate 0.1250 kg/ha): 9.0
- Preemergence herbicidal rating IPOHE ([5]; rate 0.0313 kg/ha): 0.0
- Preemergence herbicidal rating IPOHE ([5]; rate 0.0625 kg/ha): 0.0
- Preemergence herbicidal rating IPOHE ([5]; rate 0.1250 kg/ha): 1.0
- Preemergence herbicidal rating IPOHE ([5]; rate 0.2500 kg/ha): 9.0
- Preemergence herbicidal rating IPOHE ([5]; rate 0.5000 kg/ha): 9.0
- Preemergence herbicidal rating ABUTH (ABUTH (Velvetleaf) [6]; rate 0.0313 kg/ha): 7.0
- Preemergence herbicidal rating ABUTH (ABUTH (Velvetleaf) [6]; rate 0.0625 kg/ha): 7.0
- Preemergence herbicidal rating ABUTH (ABUTH (Velvetleaf) [6]; rate 0.1250 kg/ha): 9.0
- Preemergence herbicidal rating ABUTH (ABUTH (Velvetleaf) [6]; rate 0.2500 kg/ha): 9.0
- Preemergence herbicidal rating ABUTH (ABUTH (Velvetleaf) [6]; rate 0.5000 kg/ha): 9.0
